# Experimental data taken from patent publication US8236510B2, “Protein showing enhanced expression in cancer cells” (Agensys, Inc., priority 1999, dated 2012).
# Tested on: ERK phosphorylation in PC3-101P3A11 cells
# Assay: ERK phosphorylation in PC3-101P3A11 and PC3-neo cells (anti-Phospho-ERK Western blot)
# Assay type: cell-based, human
# Details: PC3-101P3A11 cells
# Procedure: Using Western blotting and other techniques, the ability of 101P3A11 to regulate these pathways is confirmed. Cells expressing or lacking 101P3A11 are either left untreated or stimulated with cytokines, androgen and anti-integrin antibodies. Cell lysates were analyzed using anti-phospho-specific antibodies (Cell Signaling, Santa Cruz Biotechnology) in order to detect phosphorylation and regulation of ERK, p38, AKT, PI3K, PLC and other signaling molecules. […] In the experiment, data shown in FIG. 26, control 3T3-neo and 3T3-101P3A11 cells were either treated with 0.5 or 10% FBS and whole cell lysates were analyzed by anti-phosphotyrosine Western blotting.
# In this experiment, control PC3-neo cells and PC3-101P3A11 cells were left untreated (0.1% FBS) or were stimulated with 10% FBS, lipophosphatidic acid (LPA), gastrin releasing peptide (GRP), leukotriene (LKB4) or platelet activating factor (PAF). The cells were lysed and analyzed by Western blotting using anti-Phospho-ERK (FIG. 27A) or anti-ERK (FIG. 27B) mAb. […] In order to delineate the signaling pathway by which 101P3A11 mediates ERK phosphorylation in cancer cells, it was confirmed which of the two pathway inhibitors: MEK inhibitor PD98059 or the p38 inhibitor SB203580 regulate 101P3A11 mediated ERK phosphorylation (FIG. 28). […] Cells were lysed and analyzed by Western blotting using anti-Phospho-ERK or anti-ERK mAb. Treatment with 10% FBS or with GRP induced the phosphorylation of ERK in PC3-101P3A11 but not in control PC3-neo cells. 101P3A11-mediated ERK phosphorylation was inhibited by the MEK-1 inhibitor PD98059 but not the p38 inhibitor SB203580 or genistein.
# Results in FIGS. 26-28 indicate that 101P3A11 regulates the activity of kinases, including ERK, and phosphatases. In order to confirm the association of 101P3A11 with phosphatase activity, the effect of the protein phosphatase inhibitor sodium orthovanadate on 101P3A11 mediated ERK phosphorylation was determined (FIG. 29). PC3-neo and PC3-101P3A11 cells were grown in media alone or in the presence of sodium orthovanadate (Na3VO4), and were stimulated with 0.1% or 10% FBS. Cells were lysed and analyzed by Western blotting using anti-Phospho-ERK or anti-ERK mAb. […] Results in FIG. 29 confirm the contribution of protein phosphatases to 101P3A11 mediated signaling.
# In order to determine whether 101P3A11 signaling results in the activation of EGFR, we compared the effect of the EGFR inhibitor, AG1517, on EGFR- and 101P3A11-mediated ERK phosphorylation (FIG. 30). In FIG. 30, PC3-neo and PC3-101P3A11 cells were grown in media alone (0.1% FBS) or in the presence of AG1517. The cells were stimulated with 0.1% or 10% FBS, GRP or EGF, lysed and analyzed by Western blotting using anti-Phospho-ERK or anti-ERK mAb. Treatment with 10% FBS, GRP and EGF induced ERK phosphorylation in PC3-101P3A11 cells. […] Data in FIG. 30 indicate that some cross talk occurred between 101P3A11 and EGFR signaling pathways.
# Since adenylate cyclase activity modulates intracellular levels of cAMP and induce downstream signaling events such as activation of protein kinase A, calcium and ERK MAPK signaling (Pierce K. L., et al, Oncogene. 2001, 20: 1532), we determined that PTX, an inhibitor of adenylate cyclase signaling, prevents 101P3A11-mediated ERK phosphorylation along with inhibiting cAMP accumulation (FIG. 33 and FIG. 34). PC3-neo and PC3-101P3A11 cells were grown overnight in 0.1% FBS in media alone or in the presence of pertussis toxin (PTX). Cells were stimulated with 0.1% or 10% FBS (FIG. 33) or 10% FBS, EGF or GRP (FIG. 34). Cells were lysed and analyzed by Western blotting using anti-Phospho-ERK mAb. Expression of 101P3A11 mediated ERK phosphorylation by 10% FBS in PC3 cells, which was inhibited by PTX (FIG. 33 and FIG. 34).
# GPCR transmit their signal by activating trimeric G proteins. […]
substance,measurement,setting,value
pertussis toxin [PTX],inhibition of FBS-mediated ERK phosphorylation,10% FBS,inhibited
same,effect on GRP and EGF-mediated ERK phosphorylation,GRP or EGF,relatively unaffected
